Source: patent publication US6143766A, “Benzopyranone and quinolone inhibitors of ras farnesyl transferase” (Warner-Lambert Company, priority 2000, dated 2000)
Read-outs that look alike come from different tables or passages of the source.

Assays:
rat FPT = molecular target: T1, rat FPT (Rattus norvegicus, UniProt Q02293+Q04631); assay: PFT Inhibitory Activity (protein farnesyl transferase); type: biochemical; conditions: 30° C., 30 minutes
T1 construct: made in house; host or cells: Sf9 insect cells
Experimental: The protein farnesyl transferase (PFT) or farnesyl protein transferase (FPT) inhibitory activity of compounds of the present invention were assayed in HEPES buffer (pH 7.4) containing 5 mM potassium phosphate and 20 μM ZnCl2. The solution also contained 5 mM DTT (dithiothreitol), 5 mM MgCl2, and 0.1% PEG 8000. Assays were performed in 96-well plates (Wallec, Finland) and employed solutions composed of varying concentrations of a compound of the present invention in 10% DMSO (dimethylsulfoxide). Upon addition of both substrates, radiolabeled farnesyl pyrophosphate ([1^3 H], specific activity 15-30 Ci/mmol, final concentration 134 nM) and (biotinyl)-Ahe-Thr-Lys-Cys-Val-Ile-Met ([3aS[3a α, 4 β, 6a α]-hexahydro-2-oxo-1H-thieno[3,4-d]imidazole-5-pentanoicacid]-[7-aminoheptanoic acid]-Thr-Lys-Cys-Val-Ile-Met). Ahe is 7-aminoheptanoic acid, Thr is threonine, Lys is lysine, Cys is cysteine, Val is valine, Ile is isoleucine, and Met is methionine (final concentration 0.2 μM); the enzyme reaction was started by addition of SF9 affinity purified rat FPT. After incubation at 30° C. for 30 minutes, the reaction was terminated by diluting the reaction 2.5-fold with a stop buffer containing 1.5 M magnesium acetate, 0.2 M H3 PO4, 0.5% BSA (bovine serum albumin), and strepavidin beads (Amersham, Arlington Heights, Ill.) at a concentration of 1.3 mg/mL. After allowing the plate to settle for 30 minutes at room temperature, radioactivity was quantitated on a microBeta counter (Model 1450, Wallec, Finland). The assay was also carried out without 5 mM potassium phosphate.

[1] = system: ras protein in ras-transformed cells; assay: Mobility Shift Assay (ras farnesylation in ras-transformed cells); type: cell-based; conditions: 18-hour incubation, read-out: Mobility Shift MED
Experimental: Twenty-four hours after planting 2×10^6 ras-transformed cells per treatment condition, the farnesylation inhibitor is added at varying concentrations. Following an 18-hour incubation period, cells are lysed in phosphate-buffered saline containing 1% Triton X-100, 0.5% sodium deoxycholate, and 0.1% SDS (sodium dodecyl sulfate), pH 7.4 in the presence of several protease inhibitors (PMSF (phenylmethylsulfonylfluoride), antipain, leupeptin, pepstatin A, and aprotinin all at 1 μg/mL). Ras protein is immunoprecipitated from the supernatants by the addition of 3 μg v-H-ras Ab-2 (Y13-259 antibody from Oncogene Science, Cambridge, Mass.). After overnight immunoprecipitation, 30 μL of a 50% protein G-Sepharose slurry (Pharmacia, Uppsala, Sweden) is added followed by 45-minute incubation. Pellets are resuspended in 2X tris-glycine loading buffer (Novex, San Diego, Calif.) containing 5% mercaptoethanol and then denatured by 5 minutes boiling prior to electrophoresis on 14% Tris-glycine SDS gels. Using Western transfer techniques, proteins are transferred to nitrocellulose membranes followed by blocking in blocking buffer. Upon overnight incubation with primary antibody (pan-ras Ab-2 from Oncogene Science, Cambridge, Mass.), an antimouse HRP (horseradish peroxidase) conjugate secondary antibody (Amersham) is employed for detection of the ras protein. Blots are developed using ECL (enhanced chemiluminescence) techniques (Amersham, Arlington Heights, Ill.).

[2] = system: EJ-1 human bladder carcinoma; conditions: 100 mg/kg, xenografts in nude mice; cited from earlier work
[3] = system: HT1080 human fibrosarcoma; conditions: 100 mg/kg, xenografts in nude mice; cited from earlier work
human colon carcinoma = conditions: 100 mg/kg, xenografts in nude mice; cited from earlier work
[4] = system: human lung carcinoma with K-ras mutation and p53 deletion; conditions: nude mice; cited from earlier work
[5] = system: mammary and salivary carcinomas in ras transgenic mice; conditions: daily administration; cited from earlier work
[6] = HEPES buffer pH 7.4 with 5 mM potassium phosphate, read-out: IC50 (μM) Hepes + 5 mM Phosphate
[7] = HEPES buffer pH 7.4 without 5 mM potassium phosphate, read-out: IC50 (μM) Hepes

Structure (SMILES)	IC50 (rat FPT; [6]) [µM]	IC50 (rat FPT; [7]) [µM]	minimal effective concentration [1] [µM]	other results
Cn1c(=O)cc(-c2cccc(Cl)c2)c2ccc(OC(Cn3ccnc3)c3ccccc3)cc21 (stereo not drawn) [Example 2, 4-(3-Chloro-phenyl)-7-(2-imidazol-1-yl-1-phenyl-ethoxy)-1-methyl-1H-quinolin-2-one]	0.99	0.7	> 1	–
Cn1c(=O)cc(-c2cccc(Cl)c2)c2cc(OCc3c[nH]cn3)ccc21 [Example 3, 4-(3-Chloro-phenyl)-6-(1H-imidazol-4-ylmethoxy)-1-methyl-1H-quinolin-2-one]	3.6	9.8	–	–
Cn1cncc1C(Oc1ccc2c(c1)c(-c1cccc(Cl)c1)cc(=O)n2C)c1ccccc1 (stereo not drawn) [Example 4, 4-(3-Chloro-phenyl)-1-methyl-6-[(3-methyl-3H-imidazol-4-yl)-phenyl-methoxy]-1H-quinolin-2-one]	1.8	1.7	–	–
Cc1cccc(-c2cc(=O)oc3cc(OC(Cn4ccnc4)c4ccccc4)ccc23)c1 (stereo not drawn) [Example 7, 7-(2-Imidazol-1-yl-1-phenyl-ethoxy)-4-m-tolyl-chromen-2-one]	1.4	0.5	–	–
Cc1ccccc1-c1cc(=O)oc2cc(OC(Cn3ccnc3)c3ccccc3)ccc12 (stereo not drawn) [Example 8, 7-(2-Imidazol-1-yl-1-phenyl-ethoxy)-4-o-tolyl-chromen-2-one]	0.92	0.98	–	–
O=c1cc(-c2ccc(Cl)cc2)c2ccc(OC(Cn3ccnc3)c3ccccc3)cc2o1 (stereo not drawn) [Example 9, 4-(4-Chloro-phenyl)-7-(2-imidazol-1-yl-1-phenyl-ethoxy)-chromen-2-one]	1.6	1.8	–	–
COC(=O)[C@H](CCSC)NC(=O)[C@H](/C=C\[C@@H](/C=C/[C@@H](N)CS)C(C)C)Cc1ccccc1 [Example B1086]	–	–	–	tumor growth inhibition [2]: inhibit tumor growth; tumor growth inhibition [3]: inhibit tumor growth; tumor growth inhibition (human colon carcinoma): inhibit tumor growth
CSCC[C@H](NC(=O)c1ccc(NC[C@@H](N)CS)cc1-c1ccccc1)C(=O)O [FT1276]	–	–	–	block of tumor growth [4]: selectively block tumor growth
CC[C@H](C)[C@@H](CO[C@@H](Cc1ccccc1)C(=O)N[C@@H](CCS(C)(=O)=O)C(=O)OC(C)C)NC[C@@H](N)CS [L-744,832]	–	–	–	tumor regression [5]: caused tumor regression

Now from value to compound, other results behind:

IC50 (rat FPT; [6]) [µM]	IC50 (rat FPT; [7]) [µM]	Structure (SMILES)	minimal effective concentration [1] [µM]	other results
0.068	0.064	Cn1c(=O)cc(-c2cccc(Cl)c2)c2cc(OC(Cn3ccnc3)c3ccccc3)ccc21 (stereo not drawn) [Example 1, 4-(3-Chloro-phenyl)-6-(2-imidazol-1-yl-1-phenyl-ethoxy)-1-methyl-1H-quinolin-2-one]	1	–
0.8	0.74	O=c1cc(-c2ccccc2)c2ccc(OC(Cn3ccnc3)c3ccccc3)cc2o1 (stereo not drawn) [Example 5, 7-(2-Imidazol-1-yl-1-phenyl-ethoxy)-4-phenyl-chromen-2-one]	0.2	–
0.32	0.29	O=c1cc(-c2cccc(Cl)c2)c2ccc(OC(Cn3ccnc3)c3ccccc3)cc2o1 (stereo not drawn) [Example 6, 4-(3-Chloro-phenyl)-7-(2-imidazol-1-yl-1-phenyl-ethoxy)-chromen-2-one]	1	–
0.29	0.14	O=c1cc(-c2ccccc2Cl)c2ccc(OC(Cn3ccnc3)c3ccccc3)cc2o1 (stereo not drawn) [Example 10, 4-(2-Chloro-phenyl)-7-(2-imidazol-1-yl-1-phenyl-ethoxy)-chromen-2-one]	> 0.2	–
0.52	0.67	Cc1ccc(-c2cc(=O)oc3cc(OC(Cn4ccnc4)c4ccccc4)ccc23)cc1 (stereo not drawn) [Example 11, 7-(2-imidazol-1-yl-1-phenyl-ethoxy)-4-p-totyl-chromen-2-one]	1	–
0.64	0.63	C=CCc1c(OC(Cn2ccnc2)c2ccccc2)ccc2c(-c3ccccc3)cc(=O)oc12 (stereo not drawn) [Example 12, 8-allyl-7-(2-imidazol-1-yl-1-phenyl-ethoxy)-4-phenyl-chromen-2-one]	> 1	–
